Patent US20150329498A1, “IRAK INHIBITORS AND USES THEREOF” (Nimbus Iris, Inc., priority 2014, published 2015)

Assays:
[1] = system: IFNα production in human white blood cells (hWBC); assay: CpG induced IFNα production in hWBC; type: cell-based; conditions: 0.5 uM CpG, 20 hours
Description: (§1) Compounds of the present invention were also studied in in vitro cytokine production assays. Exemplary protocols follow.
(§2) Human whole blood and hWBC assays: Human whole blood was diluted by combining whole blood with no serum RPMI medium at a ratio of 1:1. 180 ul/well of the diluted whole blood/well was added to a 96 well plate. For WBC assay 100,000 cells/well were seeded in a 96-well plate with a volume of 100 ul/well. To make the compound master plate 9 ul of 30 mM compound solution was added into the wells in the assigned rows, then serial solutions with 4x dilutions were made in DMSO. That is, 9 uL of 100% DMSO were added into each of the rest wells and 3 uL of compound solution was taken from the one-step higher concentration solution and mixed well with the DMSO. An intermediate compound dilution plate was made by mixing 4 uL of the compound solution from the compound master plate with 196 uL of no serum RPMI medium. hWBC or human whole blood was treated for 0.5 hour by adding 20 uL/well of the compound and the control solutions from the intermediate compound plate to the cell plate. 80 uL/well or 20 uL/well of stimulant were then added to the human whole blood or hWBC respectively. […] The supernatants were then collected and cytokine levels were measured with ELISA for TNFα (R&D Systems, #DY210) and IFNα (R&D Systems, #41100-2) per manufacturer's instruction.

[2] = system: TNFα production in THP-1 cells; assay: LPS induced TNFα production assay in THP-1 cells; type: cell-based; conditions: Homo sapiens, 300 ng/mL LPS, measured at 5 hours
Description: Provided compounds were also assayed in an LPS (Lipopolysaccharide) or R848 (TLR-7 agonist) induced cytokine (TNFα and IL8) production assay in THP-1 cells, human white blood cells (hWBC), and human whole blood. The exemplary protocol for this assay in THP-1 cells was as follows below.
THP-1 cells from ATCC (TIB-202) were cultured in RPMI Medium 1640 (Invitrogen, Cat No. A10491-01), 10% fetal bovine serum (Invitrogen, Cat No. 10099141, Lot No. 8172882) containing 100 U/mL Penicillin, 100 μg/mL streptomycin (Invitrogen, Cat No. 15140-122), and 50 uM 2-Mercaptoethanol (Invitrogen, Cat No. 21985023). LPS-EK ultra pure (Invivogen, Cat No. tlrl-peklps) was used to induce IL8 and TNFα production, that was detected in the cell culture supernatant by IL8 HTRF kit (Cisbio, Cat No. 62IL8PEB) and TNFα HTRF kit (Cisbio, Cat No. 62TNFPEB), as per manufacturer instructions. Cells were cultured in 96 well assay plates at 100,000 cells per well, and compounds diluted in final 0.3% DMSO were pre-incubated with cells for 1 hour prior to stimulation with 300 ng/mL LPS. Cytokine production in cell supernatant was measured at 5 hours for TNFα production, and at 16 hours for IL8 production and assessment of cell viability.
The compound numbers correspond to the compound numbers in Table 1. Compounds having an activity designated as “A” provided an IC50≦0.5 μM; compounds having an activity designated as “B” provided an IC50 of 0.5-5.0 μM; compounds having an activity designated as “C” provided an IC50>5.0 μM. “NA” stands for “not assayed.”

[3] = system: IFNα production in human whole blood; assay: R848 induced IFNα production in human whole blood; type: cell-based; conditions: 0.2 uM R848, 20 hours
Description: as §1, §2

[4] = system: TNFα production in human white blood cells (hWBC); assay: LPS induced TNFα production in hWBC; type: cell-based; conditions: 1 ug/mL LPS, 20 hours
Description: as §1, §2

[5] = system: LPS induced TNF alpha production; assay: Inhibition of LPS induced TNFα production in vivo; conditions: female Lewis rats, dosed PO 2 hours prior to LPS IV, serum TNFα after 1 hr; minimum efficacious dose
Description: Selected compounds were tested in vivo in female Lewis rats for LPS induced TNF alpha production by dosing PO for 2 hours prior to LPS administration IV, followed by bleeding after 1 hr for measurement of TNFα produced in serum using ELISA (Biosource). […] Compounds having an activity designated as “A” provided a MED<5.0 mg/kg; compounds having an activity designated as “B” provided a MED of 5.0-20 mg/kg; compounds having an activity designated as “C” provided a MED of 20-50 mg/kg; compounds having an activity designated as “D” provided a MED of >50 mg/kg

IC50 [1] | IC50 [2] | IC50 [3] | IC50 [4] | Compound | MED (mg/kg) [5]
≤ 0.25 µM | ≤ 0.5 µM | 0.25 to 1 µM | 1 to 10 µM | N#Cc1ccc2ncnc(N[C@H]3CC[C@H](N4CCC5(CC4)CC5)CC3)c2c1 [Compound I-7, 4-(((1r,4r)-4-(6-azaspiro[2.5]octan-6-yl)cyclohexyl)amino)-quinazoline-6-carbonitrile] | A (MED<5.0 mg/kg)
1 to 10 µM | ≤ 0.5 µM | 0.25 to 1 µM | 0.25 to 1 µM | N#Cc1ccc2ncnc(N[C@H]3CC[C@H](N4CCOCC4)CC3)c2c1 [Compound I-3, 4-(((1r,4r)-4-morpholinocyclohexyl)amino)quinazoline-6-carbonitrile] | C (MED of 20-50 mg/kg)
